# Patent US10124008B2, “Use of inhibitors of acid sphingomyelinase to treat acquired and inherited retinal degenerations” (Wisconsin Alumni Research Foundation, priority 2014, dated 2018)
# “Also recorded” adds a separate entry of the source.
# Legend:
# [1] = system: acid sphingomyelinase (ASMase); test: ASMase activity in primary RPE (sphingomyelinase fluorimetric assay kit); assay type: cell-based, porcine; settings: desipramine 10 μM for 3 hours
# Protocol: Cells were harvested by trypsinization and cell pellets were washed with PBS to remove residual medium. Cells were lysed in HNTG lysis buffer (50 mM Hepes, pH 7.4, 150 mM NaCl, 10% glycerol, 1.5 mM MgCl2, 1% triton X-100) supplemented with protease inhibitors. Total protein was measured using the DC protein assay kit (BioRad). Cellular cholesterol was quantified using the Amplex Red cholesterol assay kit (INVITROGEN) as detailed previously (Lakkaraju et al., 2007). Single eyecups from wild-type and ABCA4^−/− mice were homogenized in 50 μl of lysis buffer and processed as above. For measuring acid sphingomyelinase activity, cells were lysed in acidic pH and assays were performed using the sphingomyelinase fluorimetric assay kit from Cayman Chemicals according to the manufacturer's protocol.
# [2] = system: primary RPE cells; test: Live imaging of tandem fluorescent mRFP-GFP-LC3 (tfLC3), autophagic flux; assay type: cell-based, porcine; settings: RPE with A2E; 3 h drug incubation (TO901317 1 μM 20 h)
# Protocol: RPE cells were transfected with EGFP-LC3 or tandem fluorescent mRFP-GFP-LC3 (Addgene) using the AMAXA NUCLEOFECTOR II (Lonza). Approximately 1.5 million cells and 5 μg of plasmid DNA were used for each transfection. Cells were plated either on serum-coated glass-bottom dishes (Mattek) or […] filters at confluence.
# Andor IQ2 software was used for image acquisition and Imaris x64 (Bitplane) for image analysis. […] Trafficking data was collected from three separate transfections for a total of at least 12-30 movies captured for treatment. During image acquisition care was taken to maintain the same laser power, exposure and electron-multiplying gain settings. […] After background subtraction (using the background subtraction algorithm and identical automatic threshold for all images) and smoothing (Gaussian algorithm with identical threshold settings for all images), Spots and Tracks algorithms were used to identify vesicles and follow them through time and cell-space to obtain total track length and track displacement.
# We used tandem fluorescent mRFP-GFP-LC3 (tfLC3) to monitor autophagy in primary RPE cells in real time.
# We performed two initial screens: first, we compared the ability of functional inhibitors (fluoxetine and amitriptyline) with that of the lone structural ASMase inhibitor zoledronic acid in decreasing acetylated tubulin. Here, polarized RPE monolayers with or without A2E were treated with one of the three inhibitors (10 μM, 3 h). Desipramine as a positive control. At the end of the incubation period, cells were fixed and stained for acetylated tubulin, imaged and the amount of acetylated tubulin in the cells was quantified. Second, we evaluated three additional drugs (sertraline, astemizole and fexofenadine) for their abilities to increase autophagy in the RPE. Cells with or without bisretinoids were transfected with mRFP-GFP-LC3, starved to induce autophagy, treated with drugs and imaged as in FIG. 9D.
# [3] = system: LC3B-II and p62 in primary RPE monolayers; test: Immunoblotting of LC3B-II and p62 in polarized primary RPE monolayers; assay type: cell-based, porcine; settings: A2E-laden RPE after mTOR inhibition; TO901317 1 μM 20 h, desipramine 10 μM 3 h
# Protocol: RPE harvested from mouse eyecups were sonicated in lysis buffer with protease inhibitors for 10 min. Primary RPE on TRANSWELL filters were harvested and lysed with NE-PER nuclear and cytoplasmic extraction reagents (Thermo Scientific #78833) according to the manufacturer's recommendation. Protein concentrations were measured with DC assay (BioRad). […] Proteins were then transferred onto nitrocellulose membrane using IBLOT dry transfer system (INVITROGEN), blocked in 5% milk in TBS-T for 1 hour before incubating in primary antibody overnight at 4° C. Membranes were probed with antibodies to LC3B (1:3000, Novus NB600-1384 for pig and 1:500, Sigma L7543 for mouse), p62/SQSTM1 (1:1000, ARP03-GP62-C) and actin (1:5000, Santa Cruz) followed by horseradish peroxidase-conjugated secondary antibodies. Immunoblots were visualized by ECL substrate (Thermo Scientific) and quantified using Image Studio (LI-COR). […] Other drugs used were the mTOR inhibitors Torin 1 and Torin 2 (50 nM and 1.5 μM, respectively, for 2 h, TOCRIS), the vacuolar ATPase inhibitor bafilomycin A1 (100 nM for 2 h, EMD Millipore), the LXRα agonist TO901317 (1 μM for 20 h, Cayman Chemicals), the HDAC6 inhibitor trichostatin A (TSA, 500 nM, 16 h, Sigma) and the ASMase inhibitor desipramine (10 μM for 3 h, Sigma). To depolymerize MTs, cells were treated with 33 μM nocodazole for 30 minutes, followed by cold-treatment (4° C.) for 30 minutes (Kreitzer et al., 2003). At the concentrations and exposure times used, none of these drugs caused alterations in RPE cell morphology or physiology (monitored by TER measurements, ZO-1 and organelle marker staining). […] Conversion of LC3B-I to its lipidated form (LC3B-II) is an indicator of autophagosome biogenesis and p62 levels are a measure of autophagic flux (Klionsky et al., 2012).
# [4] = system: MHC-II in RPE; test: Quantification of MHC-II staining; assay type: cell-based; settings: RPE with A2E
structure (smiles),measurement,setting,value
CNCCCN1c2ccccc2CCc2ccccc21 [desipramine],ASMase activity,[1],decreased ASMase activity and ceramide levels
same,autophagic flux / autophagosome-lysosome fusion (tfLC3 EGFP:mRFP),[2],corrected defects in autophagosome-lysosome fusion; also recorded: completely reversed the autophagic block induced by A2E
same,LC3B-II levels / autophagosome biogenesis (immunoblot),[3],increased LC3B-II levels in RPE with A2E comparable to those in control cells
same,p62 levels / autophagic flux (immunoblot),[3],decreased p62 levels in cells with A2E
same,MHC-II protein levels,[4],decreased MHC-II protein levels
